ChEMBL document CHEMBL1201862, “PubChem BioAssay data set” (2004)
Activity calls are given as the source filed them.

What was measured:
[1] = tested on: Escherichia coli; test: microbe, parasite or virus in culture
[2] = target: Heat shock protein HSP 90-alpha (Homo sapiens, UniProt P07900); assay type: functional, organism-based
[3] = tested on: Escherichia coli; test: microbe, parasite or virus in culture; remark: listed apart in the source
[4] = target: Large T antigen (Simian virus 40, UniProt P03070); assay type: functional, Betapolyomavirus macacae;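 further: Confirmatory-stage PubChem screen for compounds that inhibit SV40 T antigen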
Large T antigen, sequence (P03070 whole entry): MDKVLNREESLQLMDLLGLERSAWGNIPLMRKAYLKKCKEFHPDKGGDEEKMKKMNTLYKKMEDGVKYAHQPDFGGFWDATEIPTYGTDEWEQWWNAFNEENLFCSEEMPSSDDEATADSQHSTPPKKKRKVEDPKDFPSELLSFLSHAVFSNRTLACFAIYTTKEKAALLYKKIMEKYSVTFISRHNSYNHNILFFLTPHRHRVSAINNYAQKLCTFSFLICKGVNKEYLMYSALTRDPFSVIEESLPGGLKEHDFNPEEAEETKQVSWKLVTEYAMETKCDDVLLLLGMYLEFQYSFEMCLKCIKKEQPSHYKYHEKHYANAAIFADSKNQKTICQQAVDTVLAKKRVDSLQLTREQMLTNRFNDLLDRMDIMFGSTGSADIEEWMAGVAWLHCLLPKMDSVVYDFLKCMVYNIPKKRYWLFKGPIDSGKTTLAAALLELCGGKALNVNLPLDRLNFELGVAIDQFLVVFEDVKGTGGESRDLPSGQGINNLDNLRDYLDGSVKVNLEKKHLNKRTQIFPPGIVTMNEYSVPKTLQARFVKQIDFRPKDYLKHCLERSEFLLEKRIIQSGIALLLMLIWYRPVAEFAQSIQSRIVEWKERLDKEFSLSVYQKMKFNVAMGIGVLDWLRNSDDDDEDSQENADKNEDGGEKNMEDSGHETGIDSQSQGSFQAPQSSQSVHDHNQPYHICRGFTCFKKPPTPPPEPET

[5] = target: FAD-linked sulfhydryl oxidase ALR (Homo sapiens, UniProt P55789); test: ALR-catalysed DTT oxidation blockers – biochemical, H2O2 detection, luminescence, cherry-pick, dose response (AID 493248)
FAD-linked sulfhydryl oxidase ALR, sequence (P55789 whole entry): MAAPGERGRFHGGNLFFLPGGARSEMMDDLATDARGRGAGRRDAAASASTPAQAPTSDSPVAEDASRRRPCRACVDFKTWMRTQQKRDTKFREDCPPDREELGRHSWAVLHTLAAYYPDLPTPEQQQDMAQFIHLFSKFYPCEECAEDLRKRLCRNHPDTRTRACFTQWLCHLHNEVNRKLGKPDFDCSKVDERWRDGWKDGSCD

[6] = target: T1, Histone-lysine N-methyltransferase NSD2 (Homo sapiens, UniProt O96028); assay type: biochemical
T1 sequence (O96028 whole entry): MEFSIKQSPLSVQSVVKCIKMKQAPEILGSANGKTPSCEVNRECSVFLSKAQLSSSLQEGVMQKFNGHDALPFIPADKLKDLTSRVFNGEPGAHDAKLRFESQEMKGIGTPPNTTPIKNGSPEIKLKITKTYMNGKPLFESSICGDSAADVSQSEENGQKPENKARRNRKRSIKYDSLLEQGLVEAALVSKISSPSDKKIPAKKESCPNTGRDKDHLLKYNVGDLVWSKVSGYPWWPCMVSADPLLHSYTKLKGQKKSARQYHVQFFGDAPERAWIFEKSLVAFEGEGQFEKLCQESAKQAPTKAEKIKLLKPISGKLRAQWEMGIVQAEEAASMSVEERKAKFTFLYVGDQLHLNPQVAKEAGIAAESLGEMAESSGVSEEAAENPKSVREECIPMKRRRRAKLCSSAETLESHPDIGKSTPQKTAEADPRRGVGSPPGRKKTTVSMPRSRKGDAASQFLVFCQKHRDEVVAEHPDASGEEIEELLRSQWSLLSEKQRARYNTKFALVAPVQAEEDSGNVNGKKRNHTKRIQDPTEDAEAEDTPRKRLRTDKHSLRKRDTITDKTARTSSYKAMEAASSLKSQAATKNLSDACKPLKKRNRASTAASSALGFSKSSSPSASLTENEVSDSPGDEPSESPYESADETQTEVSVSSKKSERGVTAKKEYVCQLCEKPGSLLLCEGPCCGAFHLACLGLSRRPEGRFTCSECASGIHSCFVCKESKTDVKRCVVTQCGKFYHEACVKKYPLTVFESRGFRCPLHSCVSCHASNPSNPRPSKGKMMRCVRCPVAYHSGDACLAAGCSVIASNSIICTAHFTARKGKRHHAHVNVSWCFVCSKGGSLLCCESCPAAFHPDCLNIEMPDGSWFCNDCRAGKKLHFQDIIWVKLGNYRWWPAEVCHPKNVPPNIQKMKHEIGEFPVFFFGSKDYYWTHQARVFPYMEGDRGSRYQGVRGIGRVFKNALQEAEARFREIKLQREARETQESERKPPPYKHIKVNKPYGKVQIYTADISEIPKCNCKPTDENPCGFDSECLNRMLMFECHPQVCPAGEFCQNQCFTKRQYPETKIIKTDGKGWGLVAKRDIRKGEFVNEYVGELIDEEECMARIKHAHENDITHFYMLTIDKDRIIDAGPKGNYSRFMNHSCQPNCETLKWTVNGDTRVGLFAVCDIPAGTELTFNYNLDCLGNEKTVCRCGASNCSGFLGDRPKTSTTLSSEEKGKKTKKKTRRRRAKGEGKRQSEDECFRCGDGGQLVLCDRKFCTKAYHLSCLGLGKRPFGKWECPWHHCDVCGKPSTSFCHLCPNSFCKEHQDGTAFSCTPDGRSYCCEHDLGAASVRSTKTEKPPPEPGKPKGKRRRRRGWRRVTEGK

[7] = target: T2, Beta-adrenergic receptor kinase 1 (Homo sapiens, UniProt P25098); test: blockers of aptamer binding to GRK2 – biochemical, flow cytometry beads, FAM-aptamer, powder set 1, dose response (AID 588720)
T2 sequence (P25098 whole entry): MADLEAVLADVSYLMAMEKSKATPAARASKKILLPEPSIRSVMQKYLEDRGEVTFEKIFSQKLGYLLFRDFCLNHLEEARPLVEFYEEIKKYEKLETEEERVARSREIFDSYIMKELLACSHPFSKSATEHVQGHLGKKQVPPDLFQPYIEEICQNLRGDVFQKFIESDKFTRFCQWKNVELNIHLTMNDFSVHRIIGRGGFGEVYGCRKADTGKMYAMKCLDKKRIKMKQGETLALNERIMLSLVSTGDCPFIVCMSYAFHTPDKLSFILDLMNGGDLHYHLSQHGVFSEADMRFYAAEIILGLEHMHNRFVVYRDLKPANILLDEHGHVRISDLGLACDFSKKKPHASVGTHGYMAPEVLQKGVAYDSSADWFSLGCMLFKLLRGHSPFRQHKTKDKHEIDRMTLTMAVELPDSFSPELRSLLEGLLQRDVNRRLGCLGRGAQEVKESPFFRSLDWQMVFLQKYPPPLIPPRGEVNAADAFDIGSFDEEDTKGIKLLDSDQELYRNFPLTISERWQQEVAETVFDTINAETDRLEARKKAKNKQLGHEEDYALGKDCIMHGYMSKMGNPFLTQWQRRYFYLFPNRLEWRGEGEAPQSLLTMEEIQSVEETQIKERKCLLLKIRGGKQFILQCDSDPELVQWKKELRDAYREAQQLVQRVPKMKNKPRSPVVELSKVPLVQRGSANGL

[8] = target: T3, Caspase-6 (Homo sapiens, UniProt P55212); test: inhibition of CASP6 peptide cleavage – biochemical, VEID-R110 fluorescence, cherry-pick, dose response (AID 720632)
T3 sequence (P55212 whole entry): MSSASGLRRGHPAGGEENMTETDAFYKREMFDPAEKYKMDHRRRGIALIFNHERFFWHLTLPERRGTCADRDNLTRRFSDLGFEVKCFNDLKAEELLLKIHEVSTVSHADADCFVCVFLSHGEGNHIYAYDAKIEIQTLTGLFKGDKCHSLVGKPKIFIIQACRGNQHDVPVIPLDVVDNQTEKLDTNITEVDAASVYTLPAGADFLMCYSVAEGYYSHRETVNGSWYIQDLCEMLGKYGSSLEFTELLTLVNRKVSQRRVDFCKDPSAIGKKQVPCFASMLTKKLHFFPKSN

[9] = target: T2, Beta-adrenergic receptor kinase 1; test: aptamer displacement from bead-bound GRK2 – biochemical, cherry pick 1, bead flow cytometry, dose response (AID 504500)
[10] = target: T4, Carboxy-terminal domain RNA polymerase II polypeptide A small phosphatase 1 (Homo sapiens, UniProt Q9GZU7); test: CTDSP1 inhibitors, concentration-response, biochemical, absorbance readout, ultra-high-throughput screen actives (AID 540297); assay type: functional
T4 sequence (Q9GZU7 whole entry): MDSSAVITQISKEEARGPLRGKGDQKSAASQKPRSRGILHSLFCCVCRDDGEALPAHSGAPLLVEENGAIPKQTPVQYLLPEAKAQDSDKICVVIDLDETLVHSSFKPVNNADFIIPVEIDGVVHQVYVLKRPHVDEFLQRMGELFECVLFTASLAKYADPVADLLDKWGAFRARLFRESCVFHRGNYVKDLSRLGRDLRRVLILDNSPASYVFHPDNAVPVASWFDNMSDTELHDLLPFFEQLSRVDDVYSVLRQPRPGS

[11] = Luminescence Cell-Based Dose Response HTS to Identify Activators of Luciferase Translation or Activity in H4 […] Cells. [Related pubchem assays: 1829 (Project Summary), 1814 (Primary HTS)]; assay type: functional
[12] = tested on: H4; test: Luminescence Cell-Based Dose Response HTS to Identify Activators of 5'UTR Stem-Loop Driven Prion Protein mRNA Translation in H4 Neuroglioblastoma Cells. [Related pubchem assays: 1829 (Project Summary), 1814 (Primary HTS)]; assay type: functional; conditions: Homo sapiens
[13] = Luminescence Cell-Based Dose Confirmation HTS to Identify Activators of 5'UTR Stem-Loop Driven Alpha-Synuclein mRNA Translation in H4 Neuroglioblastoma Cells. [Related pubchem assays: 1829 (Project Summary), 1814 (Primary HTS)]; assay type: functional
[14] = target: Dual specificity tyrosine-phosphorylation-regulated kinase 1A (Rattus norvegicus, UniProt Q63470); assay type: biochemical, Homo sapiens
[15] = target: Dual specificity protein kinase CLK1 (Homo sapiens, UniProt P49759); test: inhibition of human CLK1 activity – biochemical, cherry-picked samples, selectivity assay for Dyrk1A inhibitor project, dose response (AID 588811)
Dual specificity protein kinase CLK1, sequence (P49759 whole entry): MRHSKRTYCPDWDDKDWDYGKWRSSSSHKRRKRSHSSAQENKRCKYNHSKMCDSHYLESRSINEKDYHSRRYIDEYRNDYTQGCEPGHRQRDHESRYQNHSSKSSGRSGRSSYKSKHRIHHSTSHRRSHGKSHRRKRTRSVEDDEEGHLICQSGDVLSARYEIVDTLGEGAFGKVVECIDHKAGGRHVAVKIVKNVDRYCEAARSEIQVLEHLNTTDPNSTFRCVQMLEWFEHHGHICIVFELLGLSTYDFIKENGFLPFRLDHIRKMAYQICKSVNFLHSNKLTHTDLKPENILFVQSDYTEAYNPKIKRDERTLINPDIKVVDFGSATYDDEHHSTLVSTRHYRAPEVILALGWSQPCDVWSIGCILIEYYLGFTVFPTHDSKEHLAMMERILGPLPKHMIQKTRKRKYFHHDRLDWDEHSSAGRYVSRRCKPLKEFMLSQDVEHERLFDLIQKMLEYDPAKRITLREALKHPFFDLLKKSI

[16] = tested on: NIH3T3; test: mammalian cell viability counter-check – Alamar Blue, fluconazole, dry powder, cytotoxicity control for antifungal drug resistance project, dose response (AID 488809); assay type: functional, cell-based; conditions: Mus musculus
[17] = target: T5, Sentrin-specific protease 7 (Homo sapiens, UniProt Q9BQF6); assay type: functional;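 further: Luminescence-based dose-response confirmation of ultra-high-throughput screening hits, measuring inhibition of SENP7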
T5 sequence (Q9BQF6 whole entry): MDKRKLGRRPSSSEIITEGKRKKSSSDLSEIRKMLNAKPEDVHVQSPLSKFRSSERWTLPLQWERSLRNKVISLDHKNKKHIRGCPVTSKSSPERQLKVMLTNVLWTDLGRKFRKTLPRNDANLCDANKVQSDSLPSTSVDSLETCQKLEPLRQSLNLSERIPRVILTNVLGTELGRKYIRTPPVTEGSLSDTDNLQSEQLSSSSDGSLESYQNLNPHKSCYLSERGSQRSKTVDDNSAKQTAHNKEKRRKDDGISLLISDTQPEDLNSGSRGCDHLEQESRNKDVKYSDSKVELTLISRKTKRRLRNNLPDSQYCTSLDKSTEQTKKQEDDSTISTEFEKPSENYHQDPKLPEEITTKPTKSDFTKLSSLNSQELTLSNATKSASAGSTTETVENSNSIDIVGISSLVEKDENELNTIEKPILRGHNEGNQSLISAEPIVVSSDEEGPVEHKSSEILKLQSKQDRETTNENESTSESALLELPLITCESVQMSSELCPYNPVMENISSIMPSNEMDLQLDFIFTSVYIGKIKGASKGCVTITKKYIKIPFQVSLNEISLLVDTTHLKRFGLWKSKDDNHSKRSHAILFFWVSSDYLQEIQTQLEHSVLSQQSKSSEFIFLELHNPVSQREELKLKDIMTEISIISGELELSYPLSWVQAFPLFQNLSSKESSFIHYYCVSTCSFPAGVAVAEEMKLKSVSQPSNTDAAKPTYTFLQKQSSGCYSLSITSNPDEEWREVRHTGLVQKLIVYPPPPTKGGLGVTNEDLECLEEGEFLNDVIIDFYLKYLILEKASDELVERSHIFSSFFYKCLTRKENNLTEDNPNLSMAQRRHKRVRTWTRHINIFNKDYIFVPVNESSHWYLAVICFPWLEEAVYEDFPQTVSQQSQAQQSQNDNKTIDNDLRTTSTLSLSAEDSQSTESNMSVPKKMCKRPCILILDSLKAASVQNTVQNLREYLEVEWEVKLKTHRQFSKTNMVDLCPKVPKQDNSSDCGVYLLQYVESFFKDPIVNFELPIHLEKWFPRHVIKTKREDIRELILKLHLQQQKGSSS

[18] = target: T6, Sentrin-specific protease 6 (Homo sapiens, UniProt Q9GZR1); assay type: functional;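 further: Luminescence-based dose-response confirmatory assay of SENP6 inhibition, following up an ultra-high-throughput screen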
T6 sequence (Q9GZR1 whole entry): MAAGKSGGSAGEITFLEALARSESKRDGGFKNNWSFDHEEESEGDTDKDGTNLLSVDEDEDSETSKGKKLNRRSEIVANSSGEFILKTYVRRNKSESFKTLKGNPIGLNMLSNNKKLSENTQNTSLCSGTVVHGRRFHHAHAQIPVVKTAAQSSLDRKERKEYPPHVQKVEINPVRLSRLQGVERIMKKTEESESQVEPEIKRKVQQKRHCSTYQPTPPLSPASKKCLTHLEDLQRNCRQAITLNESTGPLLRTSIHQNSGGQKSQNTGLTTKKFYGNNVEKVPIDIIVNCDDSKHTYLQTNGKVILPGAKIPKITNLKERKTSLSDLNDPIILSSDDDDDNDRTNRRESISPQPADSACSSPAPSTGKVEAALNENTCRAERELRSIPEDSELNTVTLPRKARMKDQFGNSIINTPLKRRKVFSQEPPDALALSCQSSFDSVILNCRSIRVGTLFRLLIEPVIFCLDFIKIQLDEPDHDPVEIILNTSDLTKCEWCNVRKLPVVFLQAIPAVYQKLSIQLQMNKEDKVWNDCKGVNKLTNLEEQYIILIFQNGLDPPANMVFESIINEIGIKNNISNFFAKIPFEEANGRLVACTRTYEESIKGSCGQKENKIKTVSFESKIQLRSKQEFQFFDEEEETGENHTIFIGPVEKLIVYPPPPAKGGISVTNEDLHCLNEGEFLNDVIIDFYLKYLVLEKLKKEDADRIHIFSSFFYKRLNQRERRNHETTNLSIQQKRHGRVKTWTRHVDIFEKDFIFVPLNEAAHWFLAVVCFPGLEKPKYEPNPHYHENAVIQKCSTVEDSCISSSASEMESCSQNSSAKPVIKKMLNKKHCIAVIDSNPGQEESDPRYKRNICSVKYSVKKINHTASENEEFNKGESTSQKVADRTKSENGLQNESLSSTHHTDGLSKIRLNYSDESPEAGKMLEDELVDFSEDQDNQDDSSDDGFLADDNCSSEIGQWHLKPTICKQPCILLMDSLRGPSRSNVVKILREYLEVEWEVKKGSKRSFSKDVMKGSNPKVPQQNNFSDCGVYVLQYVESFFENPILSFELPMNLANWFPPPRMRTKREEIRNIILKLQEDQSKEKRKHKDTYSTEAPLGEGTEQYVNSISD

[19] = tested on: A-375; test: proliferation inhibition in MITF-low A375 cells – cell-based, cherry-pick samples, set 2, counter-screen for MITF modulator project, dose response (AID 540335); assay type: functional; conditions: Homo sapiens
[20] = tested on: A-375; test: MITF: Counter assay: A375 proliferation Measured in Cell-Based System Using Plate Reader - 2084-03_Inhibitor_Dose_DryPowder_Activity. [Related pubchem assays (depositor defined):AID488944]; assay type: functional; conditions: Homo sapiens
[21] = target: T7, Caspase-3 (Homo sapiens, UniProt P42574); assay type: functional;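 further: Dose-response selectivity test against caspase-3 for candidate inhibitors of sentrin-specific proteases (SENPs)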
T7 sequence (P42574 whole entry): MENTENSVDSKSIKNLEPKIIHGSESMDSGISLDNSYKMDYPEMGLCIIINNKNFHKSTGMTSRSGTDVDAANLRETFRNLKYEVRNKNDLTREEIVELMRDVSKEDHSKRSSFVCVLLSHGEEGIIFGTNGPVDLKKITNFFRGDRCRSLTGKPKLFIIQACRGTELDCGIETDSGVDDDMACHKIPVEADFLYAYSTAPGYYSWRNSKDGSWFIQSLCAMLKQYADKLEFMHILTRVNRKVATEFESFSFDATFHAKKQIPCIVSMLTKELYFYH

[22] = target: T8, Sentrin-specific protease 8 (Homo sapiens, UniProt Q96LD8); assay type: functional;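 further: luminescence read-out of SENP8 inhibition, dose-response confirmation following an ultra-high-throughput screen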
T8 sequence (Q96LD8 whole entry): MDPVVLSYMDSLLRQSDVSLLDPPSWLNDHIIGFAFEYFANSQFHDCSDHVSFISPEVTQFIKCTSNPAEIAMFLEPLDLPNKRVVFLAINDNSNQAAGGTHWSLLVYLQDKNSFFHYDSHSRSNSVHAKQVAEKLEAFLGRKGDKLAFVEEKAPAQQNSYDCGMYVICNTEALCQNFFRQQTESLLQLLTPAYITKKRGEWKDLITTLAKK

Structure (SMILES): [O-][n+]1ccccc1S [PYRITHIONE]
- AC50 [1]: 9.47 µM (active)
- AC50 [2]: 1.01 µM (active)
- AC50 [3]: 9.06 µM (active)
- IC50 [4]: 30.3 µM (active)
- AC50 [5]: 0.432 µM (active)

Structure (SMILES): O=C(O)Cc1ccc(-n2cccc2)cc1
- AC50 [6]: 11.9 µM (active)
- EC50 [7]: 3.21 µM (active)
- AC50 [8]: 2.7 µM (active)
- EC50 [9]: 36.2 µM (inactive)
- IC50 [10]: 4.01 µM (active)

Structure (SMILES): CC(=O)Nc1ccc(SCc2ncc(-c3ccccc3)o2)cc1
- EC50 [11]: 0.237 µM (active)
- EC50 [12]: 11.2 µM (active)
- EC50 [13]: 34.3 µM (active)
- AC50 [14]: 4.26 µM (active)
- AC50 [15]: 0.429 µM (active)
- AC50 [5]: 0.44 µM (active)

Structure (SMILES): O=C(Cn1nc(-c2ccccc2)c2ccccc21)NCc1ccc(Cl)cc1
- AC50 [16]: 131 µM (active)

Structure (SMILES): CCOc1ccc2nc(NC(=O)Cc3cccs3)sc2c1
- IC50 [17]: 7.38 µM (active)
- IC50 [18]: 33.2 µM (active)
- AC50 [19]: > 35 µM (active)
- AC50 [20]: > 35 µM (active)
- IC50 [21]: 22.9 µM (active)
- IC50 [22]: 16.2 µM (active)
